Data from ChEMBL document CHEMBL5523755, “Design, Synthesis, and Biological Evaluation of 1,4-Dihydropyridine-Indole as a Potential Antidiabetic Agent via GLUT4 Translocation Stimulation” (J Med Chem, 2024).
Calls of active or inactive are those of the source. The calls are words filed in the database; no cut-off is given here.

Key:
[1] = molecular target: T1, Solute carrier family 2, facilitated glucose transporter member 4 (Rattus norvegicus) (UniProt P19357); assay: Induction of GLUT4 translocation in rat L6-GLUT4myc skeletal muscle cells assessed as translocation to cell surface by measuring fold stimulation at 10 uM measured after 1 hr incubation by antibody-coupled colorimetric assay relative to control; type: cell-based; conditions: filed as modulator
T1 sequence (whole entry): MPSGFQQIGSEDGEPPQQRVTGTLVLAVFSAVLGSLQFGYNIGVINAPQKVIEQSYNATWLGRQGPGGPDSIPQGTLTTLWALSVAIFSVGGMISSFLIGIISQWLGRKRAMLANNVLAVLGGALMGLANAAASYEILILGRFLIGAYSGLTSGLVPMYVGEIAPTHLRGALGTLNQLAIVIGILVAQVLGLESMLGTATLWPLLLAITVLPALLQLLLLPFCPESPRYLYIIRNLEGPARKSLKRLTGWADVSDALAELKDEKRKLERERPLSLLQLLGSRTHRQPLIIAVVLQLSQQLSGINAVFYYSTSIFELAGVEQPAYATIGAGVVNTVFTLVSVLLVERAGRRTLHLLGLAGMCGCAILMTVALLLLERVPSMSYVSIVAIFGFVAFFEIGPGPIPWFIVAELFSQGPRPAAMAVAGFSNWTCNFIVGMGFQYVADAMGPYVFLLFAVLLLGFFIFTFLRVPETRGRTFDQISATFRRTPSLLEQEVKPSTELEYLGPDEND

[2] = molecular target: T1, Solute carrier family 2, facilitated glucose transporter member 4 (Rattus norvegicus); assay: Induction of GLUT4 translocation in rat L6-GLUT4myc skeletal muscle cells assessed as translocation to cell surface by measuring fold stimulation measured after 16 hrs incubation by antibody-coupled colorimetric assay relative to control; type: cell-based; conditions: filed as modulator, dose 5-25 µM
[3] = molecular target: T1, Solute carrier family 2, facilitated glucose transporter member 4 (Rattus norvegicus); assay: Induction of insulin-induced GLUT4 translocation in rat L6-GLUT4myc skeletal muscle cells assessed as translocation to cell surface at 10 uM measured after 16 hrs incubation (final 3 hrs under serum starved medium) followed by stimulated with 100 nM insulin for 20 mins by antibody-coupled colorimetric assay; type: cell-based
[4] = molecular target: T1, Solute carrier family 2, facilitated glucose transporter member 4 (Rattus norvegicus); assay: Induction of GLUT4 translocation in rat L6-GLUT4myc skeletal muscle cells assessed as translocation to cell surface by measuring fold stimulation at 10 uM measured after 16 hrs incubation in presence of wortmannin PI3 Kinase inhibitor by antibody-coupled colorimetric assay; type: cell-based
[5] = molecular target: T1, Solute carrier family 2, facilitated glucose transporter member 4 (Rattus norvegicus); assay: Induction of GLUT4 translocation in rat L6-GLUT4myc skeletal muscle cells assessed as translocation to cell surface by measuring fold stimulation at 10 uM measured after 16 hrs incubation in presence of compound c AMPK inhibitor by antibody-coupled colorimetric assay; type: cell-based; conditions: filed as modulator
[6] = molecular target: RAC-alpha serine/threonine-protein kinase (Rattus norvegicus) (UniProt P47196); assay: Induction of AKT phosphorylation at Ser 473 in rat L6-GLUT4myc skeletal muscle cells at 10 uM measured after 16 hrs incubation by immunoblotting analysis; type: cell-based; conditions: filed as modulator
[7] = tested on: L6-GLUT4myc; assay: Induction of GPR40 expression in rat L6-GLUT4myc skeletal muscle cells assessed as increase in mRNA level at 10 uM measured after overnight incubation by RT-PCR analysis; type: functional, cell-based; conditions: filed as activator
[8] = tested on: Rattus norvegicus; assay: Antihyperglycemic activity in STZ-induced Sprague-Dawley rat diabetic model assessed as decrease in blood glucose at 100 mg/kg, po measured upto 300 mins; type: functional, organism-based
[9] = Stability of the compound in simulated gastric fluid (SGF) assessed as compound remaining measured upto 120 mins relative to control; type: ADME; conditions: read-out: Stability
[10] = Stability of the compound in simulated intestinal fluid (SIF) assessed as compound remaining measured upto 120 mins relative to control; type: ADME; conditions: read-out: Stability
[11] = Stability of the compound in simulated physiological fluid (SPF) assessed as compound remaining measured upto 120 mins relative to control; type: ADME; conditions: read-out: Stability
[12] = Stability of the compound in rat plasma assessed as compound remaining measured upto 120 mins relative to control; type: ADME, cell-free; conditions: read-out: Stability
[13] = Cmax in Sprague-Dawley rat at 100 mg/kg, po measured after 48 hrs by LC-MS/MS analysis; type: ADME, organism-based; conditions: in vivo
[14] = Tmax in Sprague-Dawley rat at 100 mg/kg, po measured after 48 hrs by LC-MS/MS analysis; type: ADME, organism-based; conditions: in vivo
[15] = AUC in Sprague-Dawley rat at 100 mg/kg, po measured after 48 hrs by LC-MS/MS analysis; type: ADME, organism-based; conditions: in vivo
[16] = Elimination half life in Sprague-Dawley rat at 100 mg/kg, po measured after 48 hrs by LC-MS/MS analysis; type: ADME, organism-based; conditions: in vivo, read-out: beta t1/2 (converted)
[17] = Clearance in Sprague-Dawley rat at 100 mg/kg, po measured after 48 hrs by LC-MS/MS analysis; type: ADME, organism-based; conditions: in vivo
[18] = Apparent volume of distribution in Sprague-Dawley rat at 100 mg/kg, po measured after 48 hrs by LC-MS/MS analysis; type: ADME, organism-based; conditions: in vivo
[19] = MRT in Sprague-Dawley rat at 100 mg/kg, po measured after 48 hrs by LC-MS/MS analysis; type: ADME, organism-based; conditions: in vivo
[20] = molecular target: T2, Beta-galactosidase (Homo sapiens) (UniProt P16278); assay: Inhibition of beta-galactosidase (unknown origin) at 100 uM relative to control
T2 sequence (whole entry): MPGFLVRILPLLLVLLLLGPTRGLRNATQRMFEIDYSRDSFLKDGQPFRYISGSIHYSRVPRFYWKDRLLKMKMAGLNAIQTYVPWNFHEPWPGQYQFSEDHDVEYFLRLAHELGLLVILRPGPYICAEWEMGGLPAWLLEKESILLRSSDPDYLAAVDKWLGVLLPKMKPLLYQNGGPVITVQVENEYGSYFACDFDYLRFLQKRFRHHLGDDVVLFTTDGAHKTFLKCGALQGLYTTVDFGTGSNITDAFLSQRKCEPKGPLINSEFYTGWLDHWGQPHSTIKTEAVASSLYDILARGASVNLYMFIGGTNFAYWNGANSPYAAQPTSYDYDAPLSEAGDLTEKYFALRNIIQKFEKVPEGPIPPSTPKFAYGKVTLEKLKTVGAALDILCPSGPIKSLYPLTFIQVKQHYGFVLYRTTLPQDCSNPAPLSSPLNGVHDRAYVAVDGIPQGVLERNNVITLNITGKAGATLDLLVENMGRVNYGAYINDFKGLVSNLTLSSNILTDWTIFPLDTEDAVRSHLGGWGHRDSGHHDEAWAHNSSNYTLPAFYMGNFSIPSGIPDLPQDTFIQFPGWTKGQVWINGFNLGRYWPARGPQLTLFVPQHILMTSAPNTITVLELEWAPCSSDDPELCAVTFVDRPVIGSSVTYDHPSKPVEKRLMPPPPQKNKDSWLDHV

[21] = molecular target: T1, Solute carrier family 2, facilitated glucose transporter member 4 (Rattus norvegicus); assay: Induction of GLUT4 translocation in rat L6-GLUT4myc skeletal muscle cells assessed as translocation to cell surface by measuring fold stimulation at 500 uM measured after 1 hr incubation by antibody-coupled colorimetric assay relative to control; type: cell-based; conditions: filed as modulator

Chain of RAC-alpha serine/threonine-protein kinase (Rattus norvegicus) (P47196 whole entry): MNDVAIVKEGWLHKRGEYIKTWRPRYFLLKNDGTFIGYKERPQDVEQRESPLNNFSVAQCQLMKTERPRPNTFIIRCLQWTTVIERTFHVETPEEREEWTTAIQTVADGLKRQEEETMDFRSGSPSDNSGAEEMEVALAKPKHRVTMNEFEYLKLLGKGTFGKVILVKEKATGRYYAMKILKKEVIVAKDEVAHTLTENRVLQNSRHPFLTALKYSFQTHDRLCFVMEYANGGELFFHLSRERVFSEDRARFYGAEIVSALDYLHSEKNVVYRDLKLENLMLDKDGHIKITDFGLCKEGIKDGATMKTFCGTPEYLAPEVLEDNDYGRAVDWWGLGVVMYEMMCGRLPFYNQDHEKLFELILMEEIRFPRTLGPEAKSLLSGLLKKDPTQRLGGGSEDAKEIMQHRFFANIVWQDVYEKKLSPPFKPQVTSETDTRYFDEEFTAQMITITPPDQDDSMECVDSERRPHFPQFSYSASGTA

SMILES | fold change (FC) [1] | other results
COc1ccc(C2C(C(=O)NCCc3c[nH]c4ccccc34)=C(C)NC3=C2C(=O)CC(C)(C)C3)cc1OC (stereo not drawn) | 1.3 | 
CSc1ccc(C2C(C(=O)NCCc3c[nH]c4ccccc34)=C(C)NC3=C2C(=O)CC(C)(C)C3)cc1 (stereo not drawn) | 1.33 | 
COc1ccc(C2C(C(=O)NCCc3c[nH]c4ccccc34)=C(C)NC3=C2C(=O)CCC3)cc1OC (stereo not drawn) | 1.48 | 
CC1=C(C(=O)NCCc2c[nH]c3ccccc23)C(c2ccco2)C2=C(CCCC2=O)N1 (stereo not drawn) | 1.62 | 
CC1=C(C(=O)Nc2ccccc2)C(c2ccc(Cl)c(Cl)c2)C2=C(CC(C)(C)CC2=O)N1 (stereo not drawn) | 1.1 | 
CC1=C(C(=O)NCCc2c[nH]c3ccccc23)C(c2cccs2)C2=C(CC(C)(C)CC2=O)N1 (stereo not drawn) | 1.09 | 
CC1=C(C(=O)NCCc2c[nH]c3ccccc23)C(c2c(Cl)cccc2Cl)C2=C(CC(C)(C)CC2=O)N1 (stereo not drawn) | 0.82 | 
CC1=C(C(=O)NCCc2c[nH]c3ccccc23)C(c2ccc(C(F)(F)F)cc2)C2=C(CC(C)(C)CC2=O)N1 (stereo not drawn) | 1.58 | 
CC1=C(C(=O)NCCc2c(C)[nH]c3ccccc23)C(c2ccc(Cl)c(Cl)c2)C2=C(CC(C)(C)CC2=O)N1 (stereo not drawn) | 1.42 | 
CC1=C(C(=O)NCCc2c[nH]c3ccccc23)C(c2ccc(OC(F)(F)F)cc2)C2=C(CC(C)(C)CC2=O)N1 (stereo not drawn) | 2.11 | Activity [2]: Dose-Dependent Effect
CC1=C(C(=O)NCCc2c[nH]c3ccccc23)C(c2cccc([N+](=O)[O-])c2)C2=C(CC(C)(C)CC2=O)N1 (stereo not drawn) | 1.86 | Activity [2]: Dose-Dependent Effect
CC1=C(C(=O)NCCc2c[nH]c3ccccc23)C(c2scnc2C)C2=C(CC(C)(C)CC2=O)N1 (stereo not drawn) | 1 | 
CC1=C(C(=O)NCCc2c[nH]c3ccccc23)C(c2ccc([N+](=O)[O-])cc2)C2=C(CC(C)(C)CC2=O)N1 (stereo not drawn) | 1.72 | 
COc1ccc2[nH]cc(CCNC(=O)C3=C(C)NC4=C(C(=O)CC(C)(C)C4)C3c3ccc(Cl)c(Cl)c3)c2c1 (stereo not drawn) | 1.37 | 
CCOC(=O)C1=C(C)NC2=C(C(=O)CC(C)(C)C2)C1c1ccc(Cl)c(Cl)c1 (stereo not drawn) | 1.92 | 
CCNC(=O)C1=C(C)NC2=C(C(=O)CC(C)(C)C2)C1c1ccc(Cl)c(Cl)c1 (stereo not drawn) | 1.16 | 
CC1=C(C(=O)NCCc2c[nH]c3ccccc23)C(c2ccc(F)cc2)C2=C(CC(C)(C)CC2=O)N1 (stereo not drawn) | 1 | 
CC1=C(C(=O)NCCc2c[nH]c3ccccc23)C(c2ccc(O)c(O)c2)C2=C(CC(C)(C)CC2=O)N1 (stereo not drawn) | 0.99 | 

SMILES | fold change (FC) [1] | other results
CC1=C(C(=O)NCCc2c[nH]c3ccccc23)C(c2ccsc2)C2=C(CCCC2=O)N1 (stereo not drawn) | 1.64 | 
Cc1nc2c(c(-c3ccc(Cl)c(Cl)c3)c1C(=O)NCCc1c[nH]c3ccccc13)C(=O)CC(C)(C)C2 | 1.42 | 
COc1cc(C2C(C(=O)NCCc3c[nH]c4ccccc34)=C(C)NC3=C2C(=O)CCC3)cc(OC)c1OC (stereo not drawn) | 1.79 | Activity [2]: Dose-Dependent Effect
COc1ccc(C2C(C(=O)NCCc3c[nH]c4ccccc34)=C(C)NC3=C2C(=O)CC(C)(C)C3)cc1 (stereo not drawn) | 1.39 | 
NCCc1c[nH]c2ccccc12 | 1.08 | 
CC1=C(C(=O)NCCc2c[nH]c3ccccc23)C(c2cccc(Cl)c2Cl)C2=C(CC(C)(C)CC2=O)N1 (stereo not drawn) | 1.52 | 
CC1=C(C(=O)NCCc2c[nH]c3ccccc23)C(c2ccc(F)cc2)C2=C(CCCC2=O)N1 (stereo not drawn) | 1.54 | 
CC1=C(C(=O)NCCc2c[nH]c3ccccc23)C(c2ccc(Cl)cc2)C2=C(CC(C)(C)CC2=O)N1 (stereo not drawn) | 1.49 | 
CC1=C(C(=O)NCCc2c[nH]c3ccccc23)C(c2ccc(Cl)c(Cl)c2)C2=C(CC(C)(C)CC2=O)N1 (stereo not drawn) | 2.96 | Activity [2]: Dose-Dependent Effect; Activity [3]: inactive; Activity [4]: inactive; Activity [5]: Active; Activity [6]: Active; Activity [7]: Active; Activity [8]: Active; remaining at 2 h [9]: 90.8%; remaining at 2 h [10]: 91.1%; remaining at 2 h [11]: 96.2%; remaining at 2 h [12]: 90.2%; Cmax [13]: 51.7 ng/mL; Tmax [14]: 0.42 h; AUC at 48 h [15]: 367 ng·h/mL; half-life [16]: 14.3 h; CL/F [17]: 254 L/h/kg; Vd(app) [18]: 5281.28 L/kg; MRT [19]: 20.8 h
O=C(NC(Cc1c[nH]c2ccccc12)C(=O)O)c1cccc(Cl)c1 (stereo not drawn) |  | inhibition [20]: 49%
CC1=C(C(=O)NCCc2c[nH]c3ccccc23)C(c2cccc([N+](=O)[O-])c2)C2=C(CCCC2=O)N1 (stereo not drawn) | 1.71 | 
COc1cc(C2C(C(=O)NCCc3c[nH]c4ccccc34)=C(C)NC3=C2C(=O)CC(C)(C)C3)cc(OC)c1OC (stereo not drawn) | 1.21 | 
CN(C)C(=N)NC(=N)N |  | fold change (FC) [21]: 1.86
CC(=O)CC(=O)NCCc1c[nH]c2ccccc12 | 1.18 | 
CC1=C(C(=O)NCCc2c[nH]c3ccccc23)C(c2ccc(C#N)cc2)C2=C(CC(C)(C)CC2=O)N1 (stereo not drawn) | 0.96 | 
CC1=C(C(=O)NCCc2c[nH]c3ccccc23)C(c2ccco2)C2=C(CC(C)(C)CC2=O)N1 (stereo not drawn) | 2.01 | Activity [2]: Dose-Dependent Effect
CC1=C(C(=O)NCCc2c[nH]c3ccccc23)C(c2ccsc2)C2=C(CC(C)(C)CC2=O)N1 (stereo not drawn) | 1.87 | Activity [2]: Dose-Dependent Effect
